Measured values published in patent US20230123334A1, “AMINO LIPID COMPOUND, PREPARATION METHOD THEREFOR, AND APPLICATION THEREOF” (SHENZHEN SHENXIN BIOTECHNOLOGY CO., LTD., priority 2020, published 2023).

Test system: HEK293 cells
Assay: Preliminary screening as mRNA vectors, EGFP mRNA transfection of HEK293 cells
Assay type: cell-based
Conditions: EGFP mRNA 50 ng per well, 96-well plates; percentage of GFP fluorescent cells relative to total number of cells (Hoechst)
Method in brief: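 Each well of HEK293 cells received 50 ng of EGFP mRNA. Efficiency was expressed as percent GFP-expressing cells over Hoechst-defined total cell number.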

Row | SMILES | Absolute mRNA transfection efficiency in HEK293 cells
1 | CCCCCCCCCCSc1nc(NCCCCCC)nc(NCCCN(C)C)n1 [Compound D6S10N6] | 1.5%
2 | CCCCCCCCCCSc1nc(NCCCCCCC)nc(NCCCN(C)C)n1 [Compound D6S10N7] | 4.4%
3 | CCCCCCCCCCSc1nc(NCCCCCCCC)nc(NCCCN(C)C)n1 [Compound D6S10N8] | 3.7%
4 | CCCCCCCCCCSc1nc(NCCCCCCCCC)nc(NCCCN(C)C)n1 [Compound D6S10N9] | 8.7%
5 | CCCCCCCCCCCNc1nc(NCCCN(C)C)nc(SCCCCCCCCCC)n1 [Compound D6S10N11] | 10.0%
6 | CCCCCCCCCCCCNc1nc(NCCCN(C)C)nc(SCCCCCCCCCC)n1 [Compound D6S10N12] | 25.4%
7 | CCCCCCCCCCCCCNc1nc(NCCCN(C)C)nc(SCCCCCCCCCC)n1 [Compound D6S10N13] | 10.2%
8 | CCCCCCCCCCCCCCCNc1nc(NCCCN(C)C)nc(SCCCCCCCCCC)n1 [Compound D6S10N15] | 3.5%
9 | CCCCCCCCCCCCCCCCNc1nc(NCCCN(C)C)nc(SCCCCCCCCCC)n1 [Compound D6S10N16] | 51.5%
10 | CCCCCCCCCCCCCCCCCCNc1nc(NCCCN(C)C)nc(SCCCCCCCCCC)n1 [Compound D6S10N18] | 31.8%
11 | CCCCCCCCCCCSc1nc(NCCCCCC)nc(NCCCN(C)C)n1 [Compound D6S11N6] | 1.7%
12 | CCCCCCCCCCCSc1nc(NCCCCCCC)nc(NCCCN(C)C)n1 [Compound D6S11N7] | 29.1%
13 | CCCCCCCCCCCSc1nc(NCCCCCCCC)nc(NCCCN(C)C)n1 [Compound D6S11N8] | 16.8%
14 | CCCCCCCCCCCSc1nc(NCCCCCCCCC)nc(NCCCN(C)C)n1 [Compound D6S11N9] | 45.1%
15 | CCCCCCCCCCCNc1nc(NCCCN(C)C)nc(SCCCCCCCCCCC)n1 [Compound D6S11N11] | 35.5%
16 | CCCCCCCCCCCCNc1nc(NCCCN(C)C)nc(SCCCCCCCCCCC)n1 [Compound D6S11N12] | 15.9%
17 | CCCCCCCCCCCCCNc1nc(NCCCN(C)C)nc(SCCCCCCCCCCC)n1 [Compound D6S11N13] | 10.0%
18 | CCCCCCCCCCCCCCCNc1nc(NCCCN(C)C)nc(SCCCCCCCCCCC)n1 [Compound D6S11N15] | 13.1%
19 | CCCCCCCCCCCCCCCCNc1nc(NCCCN(C)C)nc(SCCCCCCCCCCC)n1 [Compound D6S11N16] | 6.2%
20 | CCCCCCCCCCCCCCCCCCNc1nc(NCCCN(C)C)nc(SCCCCCCCCCCC)n1 [Compound D6S11N18] | 14.6%
21 | CCCCCCCCCCCCSc1nc(NCCCCCC)nc(NCCCN(C)C)n1 [Compound D6S12N6] | 1.1%
22 | CCCCCCCCCCCCSc1nc(NCCCCCCC)nc(NCCCN(C)C)n1 [Compound D6S12N7] | 13.0%
23 | CCCCCCCCCCCCSc1nc(NCCCCCCCC)nc(NCCCN(C)C)n1 [Compound D6S12N8] | 30.5%

Row | SMILES | Absolute mRNA transfection efficiency in HEK293 cells
24 | CCCCCCCCCCCCSc1nc(NCCCCCCCCC)nc(NCCCN(C)C)n1 [Compound D6S12N9] | 24.0%
25 | CCCCCCCCCCCCSc1nc(NCCCCCCCCCCC)nc(NCCCN(C)C)n1 [Compound D6S12N11] | 14.0%
26 | CCCCCCCCCCCCNc1nc(NCCCN(C)C)nc(SCCCCCCCCCCCC)n1 [Compound D6S12N12] | 10.4%
27 | CCCCCCCCCCCCCNc1nc(NCCCN(C)C)nc(SCCCCCCCCCCCC)n1 [Compound D6S12N13] | 5.5%
28 | CCCCCCCCCCCCCCCNc1nc(NCCCN(C)C)nc(SCCCCCCCCCCCC)n1 [Compound D6S12N15] | 1.6%
29 | CCCCCCCCCCCCCCCCNc1nc(NCCCN(C)C)nc(SCCCCCCCCCCCC)n1 [Compound D6S12N16] | 1.9%
30 | CCCCCCCCCCCCCCCCCCNc1nc(NCCCN(C)C)nc(SCCCCCCCCCCCC)n1 [Compound D6S12N18] | 1.7%
31 | CCCCCCCCCCCCCCSc1nc(NCCCCCC)nc(NCCCN(C)C)n1 [Compound D6S14N6] | 59.9%
32 | CCCCCCCCCCCCCCSc1nc(NCCCCCCC)nc(NCCCN(C)C)n1 [Compound D6S14N7] | 90.8%
33 | CCCCCCCCCCCCCCSc1nc(NCCCCCCCC)nc(NCCCN(C)C)n1 [Compound D6S14N8] | 80.6%
34 | CCCCCCCCCCCCCCSc1nc(NCCCCCCCCCCC)nc(NCCCN(C)C)n1 [Compound D6S14N11] | 20.1%
35 | CCCCCCCCCCCCCCSc1nc(NCCCCCCCCCCCC)nc(NCCCN(C)C)n1 [Compound D6S14N12] | 17.0%
36 | CCCCCCCCCCCCCCSc1nc(NCCCCCCCCCCCCC)nc(NCCCN(C)C)n1 [Compound D6S14N13] | 5.2%
37 | CCCCCCCCCCCCCCCNc1nc(NCCCN(C)C)nc(SCCCCCCCCCCCCCC)n1 [Compound D6S14N15] | 0.1%
38 | CCCCCCCCCCCCCCCCNc1nc(NCCCN(C)C)nc(SCCCCCCCCCCCCCC)n1 [Compound D6S14N16] | 0.5%
39 | CCCCCCCCCCCCCCCCCCNc1nc(NCCCN(C)C)nc(SCCCCCCCCCCCCCC)n1 [Compound D6S14N18] | 0.7%
40 | CCCCCCCCCCCCCCCSc1nc(NCCCCCC)nc(NCCCN(C)C)n1 [Compound D6S15N6] | 37.4%
41 | CCCCCCCCCCCCCCCSc1nc(NCCCCCCC)nc(NCCCN(C)C)n1 [Compound D6S15N7] | 46.1%
42 | CCCCCCCCCCCCCCCSc1nc(NCCCCCCCC)nc(NCCCN(C)C)n1 [Compound D6S15N8] | 6.9%
43 | CCCCCCCCCCCCCCCSc1nc(NCCCCCCCCC)nc(NCCCN(C)C)n1 [Compound D6S15N9] | 61.9%
44 | CCCCCCCCCCCCCCCSc1nc(NCCCCCCCCCCC)nc(NCCCN(C)C)n1 [Compound D6S15N11] | 7.8%
45 | CCCCCCCCCCCCCCCSc1nc(NCCCCCCCCCCCC)nc(NCCCN(C)C)n1 [Compound D6S15N12] | 9.6%
46 | CCCCCCCCCCCCCCCSc1nc(NCCCCCCCCCCCCC)nc(NCCCN(C)C)n1 [Compound D6S15N13] | 0.8%

Row | SMILES | Absolute mRNA transfection efficiency in HEK293 cells
47 | CCCCCCCCCCCCCCCNc1nc(NCCCN(C)C)nc(SCCCCCCCCCCCCCCC)n1 [Compound D6S15N15] | 0.8%
48 | CCCCCCCCCCCCCCCCNc1nc(NCCCN(C)C)nc(SCCCCCCCCCCCCCCC)n1 [Compound D6S15N16] | 0.2%
49 | CCCCCCCCCCCCCCCCCCNc1nc(NCCCN(C)C)nc(SCCCCCCCCCCCCCCC)n1 [Compound D6S15N18] | 1.9%
50 | CCCCCCCCCCCCCCCCSc1nc(NCCCCCC)nc(NCCCN(C)C)n1 [Compound D6S16N6] | 96.4%
51 | CCCCCCCCCCCCCCCCSc1nc(NCCCCCCC)nc(NCCCN(C)C)n1 [Compound D6S16N7] | 88.3%
52 | CCCCCCCCCCCCCCCCSc1nc(NCCCCCCCC)nc(NCCCN(C)C)n1 [Compound D6S16N8] | 91.5%
53 | CCCCCCCCCCCCCCCCSc1nc(NCCCCCCCCC)nc(NCCCN(C)C)n1 [Compound D6S16N9] | 76.1%
54 | CCCCCCCCCCCCCCCCSc1nc(NCCCCCCCCCCC)nc(NCCCN(C)C)n1 [Compound D6S16N11] | 63.0%
55 | CCCCCCCCCCCCCCCCSc1nc(NCCCCCCCCCCCC)nc(NCCCN(C)C)n1 [Compound D6S16N12] | 2.0%
56 | CCCCCCCCCCCCCCCCSc1nc(NCCCCCCCCCCCCC)nc(NCCCN(C)C)n1 [Compound D6S16N13] | 0.5%
57 | CCCCCCCCCCCCCCCCSc1nc(NCCCCCCCCCCCCCCC)nc(NCCCN(C)C)n1 [Compound D6S16N15] | 0.1%
58 | CCCCCCCCCCCCCCCCNc1nc(NCCCN(C)C)nc(SCCCCCCCCCCCCCCCC)n1 [Compound D6S16N16] | 0.1%
59 | CCCCCCCCCCCCCCCCCCNc1nc(NCCCN(C)C)nc(SCCCCCCCCCCCCCCCC)n1 [Compound D6S16N18] | 0.0%
60 | CCCCCCCCCCCCCCCCCCSc1nc(NCCCCCC)nc(NCCCN(C)C)n1 [Compound D6S18N6] | 74.8%
61 | CCCCCCCCCCCCCCCCCCSc1nc(NCCCCCCC)nc(NCCCN(C)C)n1 [Compound D6S18N7] | 87.5%
62 | CCCCCCCCCCCCCCCCCCSc1nc(NCCCCCCCC)nc(NCCCN(C)C)n1 [Compound D6S18N8] | 74.5%
63 | CCCCCCCCCCCCCCCCCCSc1nc(NCCCCCCCCC)nc(NCCCN(C)C)n1 [Compound D6S18N9] | 40.1%
64 | CCCCCCCCCCCCCCCCCCSc1nc(NCCCCCCCCCCC)nc(NCCCN(C)C)n1 [Compound D6S18N11] | 5.7%
65 | CCCCCCCCCCCCCCCCCCSc1nc(NCCCCCCCCCCCC)nc(NCCCN(C)C)n1 [Compound D6S18N12] | 2.6%
66 | CCCCCCCCCCCCCCCCCCSc1nc(NCCCCCCCCCCCCC)nc(NCCCN(C)C)n1 [Compound D6S18N13] | 1.0%
67 | CCCCCCCCCCCCCCCCCCSc1nc(NCCCCCCCCCCCCCCC)nc(NCCCN(C)C)n1 [Compound D6S18N15] | 0.0%
